Some test systems named below: NCI-H23 lung; HOP-92 NSCLC; K-562 leukemia; SK-MEL-28 melanoma; NCI-H460 lung; T-47D breast; HS 578T breast; DMS 273 small cell lung; MALME-3M melanoma; XF 498 CNS; SF-268 CNS.
Experiment in all cases: NCI anticancer screen, dose series, 48 h

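Assay format: 96-well plates, 48-hour exposure. The concentration for full growth arrest is given as TGI.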

As for `COC(=O)c1cc(CNCCc2c[nH]c3ccccc23)on1`, the TGI in the test on NCI-H23 lung, in the test on HOP-92 NSCLC, in the test on K-562 leukemia, in the test on SK-MEL-28 melanoma, with NCI-H460 lung and in the test with T-47D breast was above 100 µM in each case. The TGI in the test with HS 578T breast was above 100 µM; in the test with DMS 273 small cell lung it was above 100 µM; with MALME-3M melanoma, above 100 µM; with XF 498 CNS, 67.4 µM; in the test with SF-268 CNS, above 100 µM.
Turning to `CC(=O)NC(Cc1ccccc1)C(=S)N1CCCC1` (stereo not given), the TGI in the test with NCI-H23 lung, in the test on HOP-92 NSCLC, in the test with K-562 leukemia, in the test on SK-MEL-28 melanoma, in the test with NCI-H460 lung and in the test on DMS 273 small cell lung was above 100 µM in each case. Further, the TGI in the test on MALME-3M melanoma, in the test on XF 498 CNS and in the test on SF-268 CNS was above 100 µM throughout.
In the case of `Cc1ccc(CCNC(=S)SCC(NC(=O)CCC(N)C(=O)O)C(=O)NCC(=O)O)cc1` (stereo not given), the TGI in the test with NCI-H23 lung was 9.99 µM; in the test on HOP-92 NSCLC, 2.8 µM; in the test on K-562 leukemia, 2.5 µM; with SK-MEL-28 melanoma, 7.63 µM; with NCI-H460 lung, 8.09 µM; in the test on DMS 273 small cell lung, 1.68 µM. The TGI in the test on MALME-3M melanoma amounted to 4.47 µM; in the test on XF 498 CNS, 3.15 µM; in the test with SF-268 CNS, 8.29 µM.
For the molecule `CCN(CC)CC(C(=O)Nc1c(C)cccc1C)/C(C)=N/NC(N)=S` (stereo not given), the TGI with NCI-H23 lung, in the test on HOP-92 NSCLC, in the test on K-562 leukemia, with SK-MEL-28 melanoma, in the test on NCI-H460 lung and with DMS 273 small cell lung was above 100 µM throughout. The TGI in the test with MALME-3M melanoma, in the test with XF 498 CNS and in the test on SF-268 CNS was above 100 µM in each case.
For `COc1ccc(C2Oc3cc(OC)c(O)cc3[C@@H]2C)cc1` (stereo not given in full), the TGI was above 100 µM with NCI-H23 lung; 72.1 µM in the test with HOP-92 NSCLC; above 100 µM with K-562 leukemia; above 100 µM in the test on SK-MEL-28 melanoma; above 100 µM in the test with NCI-H460 lung; above 100 µM with DMS 273 small cell lung. Also, the TGI in the test on MALME-3M melanoma is above 100 µM; with XF 498 CNS, 35.6 µM; in the test on SF-268 CNS it was above 100 µM.
As for `COc1cc2c(oc(=O)c3c4oc([Si](C)(C)C)cc4cc(OC)c23)c2cccc(O)c12`, the TGI in the test on NCI-H23 lung, in the test with HOP-92 NSCLC, in the test on K-562 leukemia, in the test on SK-MEL-28 melanoma, in the test on NCI-H460 lung and in the test on DMS 273 small cell lung was above 100 µM throughout. The TGI with MALME-3M melanoma, in the test on XF 498 CNS and in the test on SF-268 CNS was above 100 µM in each case.
Take `Cc1cn2cc(-c3ccncc3)nc2s1`: the TGI with NCI-H23 lung, with HOP-92 NSCLC, in the test with K-562 leukemia, in the test on SK-MEL-28 melanoma, in the test on NCI-H460 lung and in the test with DMS 273 small cell lung was above 100 µM in each case. The TGI with MALME-3M melanoma, in the test on XF 498 CNS and in the test on SF-268 CNS was above 100 µM in each case.

These data come from PubChem BioAssay (NCI).
